Patent US6451850B1, “Bio-chemical germanium complexes with high therapeutic efficiency and wide application spectrum” (priority 2001, dated 2002)

Details: Table 4
Experimental: Water solutions or suspensions of the complexes under investigation have been injected intraperitoneally 30÷60 min. before beginning of the experiment. Animals from the control group got equal amounts of physiological salt solution. High altitude hypoxia was made in special air tight chambers, in which a lift of the animals up to the altitude 10,000 m has been imitated by pumping out of air. A criterion of validity for the complexes was increase of mice life length and survivability of these.
Interferon inducing activity of the complexes has been studied with various methods, including the study with native leukocytes of human donor blood.
Antiinflammatory effect has been studied for animals according to the method by Ju. Strel'nikov. Experiments have been carried out with white mice of mass 20 g. Aseptic inflammation was caused by injection of 0.1 ml of 2.5% formalin solution into thigh thickness of an animal's paw. A compound under investigation was injected into the stomach in the dose equimolecular to 20 mg/kg of indometacin two hours before the injection of formalin. Distinction of the edema was estimated by increase of a mass of inflamed and uninflammed paws in experimental groups of animals compared to control ones. […] Simultaneously antiinflammatory activity of indometacin was studied for comparison.

| Compound | Expansion of Effect Spectrum for the Complex Medicament |
| --- | --- |
| NC12CC3CC(CC(C3)C1)C2.[CH3][Ge]12[O]CCN(CC(=O)[O]1)CC(=O)[O]2 | - . - |
| Cc1cn([C@H]2C[C@H](N=[N+]=[N-])[C@@H](CO)O2)c(=O)[nH]c1=O.[CH3][Ge]12[O]CCN(CC(=O)[O]1)CC(=O)[O]2 | - . - |
| [CH3][Ge]12[O]CCN(CC(=O)[O]1)CC(=O)[O]2.c1ccc(Cc2nc3ccccc3[nH]2)cc1 [Dibasolum OGC (R = CH3, R1R2 = R5R6 = O)] | - . - |
| [OH][Ge]12[O]CCN(CC[O]1)CC[O]2.c1ccc(Cc2nc3ccccc3[nH]2)cc1 [Dibasolum OGC (R = OH)] | - . - |
| [SH][Ge]12[O]CCN(CC[O]1)CC[O]2.c1ccc(Cc2nc3ccccc3[nH]2)cc1 [Dibasolum OGC (R = SH)] | - . - |
| C[CH2][Ge]12[O]CCN(CC[O]1)CC(=O)[O]2.O=c1[nH]c(=O)n([C@H]2C[C@H](O)[C@@H](CO)O2)cc1I [Idoxuridine OGC (R = C2H5, R1,R2 = O)] | - . - |
| O=c1[nH]c(=O)n(C2CC(O)C(CO)O2)cc1I.[OH][Ge]12[O]CCN(CC[O]1)CC[O]2 (stereo not shown) [Idoxuridine OGC (R = OH)] | - . - |
| O=c1[nH]c(=O)n([C@H]2C[C@H](O)[C@@H](CO)O2)cc1I.[SH][Ge]12[O]CCN(CC[O]1)CC[O]2 [Idoxuridine OGC (R = SH)] | - . - |
| NC12CC3CC(CC(C3)C1)C2.[OH][Ge]12[O]CCN(CC[O]1)CC[O]2 [Midantanum OGC (R = OH)] | - . - |
| NC12CC3CC(CC(C3)C1)C2.[SH][Ge]12[O]CCN(CC[O]1)CC[O]2 [Midantanum OGC (R = SH)] | - . - |
| CC(N)C12CC3CC(CC(C3)C1)C2.O=C1CN2CC[O][Ge]([OH])([O]CC2)[O]1 (stereo not shown) [Remantadinum OGC (R = OH, R1R2 = O)] | - . - |
| CC(N)C12CC3CC(CC(C3)C1)C2.[SH][Ge]12[O]CCN(CC[O]1)CC[O]2 (stereo not shown) [Remantadinum OGC (R = SH)] | - . - |
| Nc1ncnc2c1ncn2C1OC(CO)C(O)C1O.O=C1CN2CC[O][Ge]([OH])([O]CC2)[O]1 (stereo not shown) [Vidarabinum OGC (R = OH, R1,R2 = O)] | - . - |
| Nc1ncnc2c1ncn2C1OC(CO)C(O)C1O.[OH][Ge]12[O]CCN(CC[O]1)CC[O]2 (stereo not shown) [Vidarabinum OGC(R = OH)] | - . - |
| CC1CN2CC[O][Ge]([OH])([O]CC2)[O]1.Nc1ncnc2c1ncn2C1OC(CO)C(O)C1O (stereo not shown) [Vidarabinum OGC(R = OH, R1 = CH3)] | - . - |
| C[CH2][Ge]12[O]CCN(CC[O]1)CC(=O)[O]2.Nc1nc2c(ncn2COCCO)c(=O)[nH]1 [Virolex OGC (R = C2H5, R1, R2 = O)] | - . - |
| Cc1cn([C@H]2C[C@H](N=[N+]=[N-])[C@@H](CO)O2)c(=O)[nH]c1=O.[CH3][Ge]([CH3])([CH3])[O][Ge]12[O]CCN(CC[O]1)CC[O]2 [Zidovudine OGC (R = OGeMe3)] | - . - |
| Cc1cn([C@H]2C[C@H](N=[N+]=[N-])[C@@H](CO)O2)c(=O)[nH]c1=O.[OH][Ge]12[O]CCN(CC[O]1)CC[O]2 [Zidovudine OGC (R = OH)] | - . - |
| C[Si](C)(C)[O][Ge]12[O]CCN(CC[O]1)CC[O]2.Cc1cn([C@H]2C[C@H](N=[N+]=[N-])[C@@H](CO)O2)c(=O)[nH]c1=O [Zidovudine OGC (R = OSiMe3)] | - . - |
| Cc1cn([C@H]2C[C@H](N=[N+]=[N-])[C@@H](CO)O2)c(=O)[nH]c1=O.[SH][Ge]12[O]CCN(CC[O]1)CC[O]2 [Zidovudine OGC (R = SH)] | - . - |

Same assay, conditions: Table 5

| Compound | Expansion of Effect Spectrum for the Complex Medicament |
| --- | --- |
| CN(C)CCCN1c2ccccc2Sc2ccc(Cl)cc21.O=C1CN2CC[O][Ge]([C]34CC5CC(CC(C5)C3)C4)([O]1)[O]C(=O)C2 | - . - |
| CN(C)CCC=C1c2ccccc2Sc2ccc(Cl)cc21.C[CH2][Ge]12[O]CCN(CC(=O)[O]1)CC(=O)[O]2 | - . - |
| O=C1CN2CC[O][Ge]([C]34CC5CC(CC(C5)C3)C4)([O]1)[O]C(=O)C2.O=C1NC(=O)C(c2ccccc2)(c2ccccc2)N1 | - . - |
| CCC1(c2ccccc2)C(=O)NCNC1=O.O=C1CN2CC[O][Ge]([C]34CC5CC(CC(C5)C3)C4)([O]1)[O]C(=O)C2 | - . - |
| N[C@@H](Cc1ccc(O)c(O)c1)C(=O)O.O=C1CN2CC[O][Ge]([C]34CC5CC(CC(C5)C3)C4)([O]1)[O]C(=O)C2 | - . - |
| CN1CCN(CCCN2c3ccccc3Sc3ccc(Cl)cc32)CC1.[CH3][Ge]12[O]CCN(CC(=O)[O]1)CC(=O)[O]2 | - . - |
| O=C1CN=C(c2ccccc2Cl)c2cc(Br)ccc2N1.[CH3][Ge]12[O]C(=O)CN(CC(=O)[O]1)CC(=O)[O]2 | - . - |
| O=C1CN2CC[O][Ge]([C]34CC5CC(CC(C5)C3)C4)([O]CC2)[O]1.O=C1CN=C(c2ccccc2Cl)c2cc(Br)ccc2N1 | - . - |
| CCC1(c2ccccc2)C(=O)NC(=O)NC1=O.O=C1CN2CC[O][Ge]([C]34CC5CC(CC(C5)C3)C4)([O]1)[O]C(=O)C2 | - . - |
| CN(C)CCCN1c2ccccc2Sc2ccc(Cl)cc21.[OH][Ge]12[O]CCN(CC[O]1)CC[O]2 [Aminazinum OGC (R = OH)] | - . - |
| CN(C)CCCN1c2ccccc2Sc2ccc(Cl)cc21.[SH][Ge]12[O]CCN(CC[O]1)CC[O]2 [Aminazinum OGC (R = SH)] | - . - |
| CN(C)CCC=C1c2ccccc2Sc2ccc(Cl)cc21.[OH][Ge]12[O]CCN(CC[O]1)CC[O]2 [Chlorprotexenum OGC (R = OH)] | - . - |
| CN(C)CCC=C1c2ccccc2Sc2ccc(Cl)cc21.[SH][Ge]12[O]CCN(CC[O]1)CC[O]2 [Chlorprotexenum OGC (R = SH)] | - . - |
| CN1C(=O)CN=C(c2ccccc2)c2cc(Cl)ccc21.[OH][Ge]12[O]CCN(CC[O]1)CC[O]2 [Diazepam OGC (R = OH)] | - . - |
| CN1C(=O)CN=C(c2ccccc2)c2cc(Cl)ccc21.[SH][Ge]12[O]CCN(CC[O]1)CC[O]2 [Diazepam OGC (R = SH)] | - . - |
| O=C1NC(=O)C(c2ccccc2)(c2ccccc2)N1.[OH][Ge]12[O]CCN(CC[O]1)CC[O]2 [Dipheninum OGC (R = OH)] | - . - |
| CCC1(c2ccccc2)C(=O)NCNC1=O.[OH][Ge]12[O]CCN(CC[O]1)CC[O]2 [Hexamidinum OGC (R = OH)] | - . - |
| N[C@@H](Cc1ccc(O)c(O)c1)C(=O)O.[OH][Ge]12[O]CCN(CC[O]1)CC[O]2 [Levodopa OGC (R = OH)] | - . - |
| CN1CCN(CCCN2c3ccccc3Sc3ccc(Cl)cc32)CC1.[OH][Ge]12[O]CCN(CC[O]1)CC[O]2 [Meterazinum OGC (R = OH)] | - . - |
| CN1CCN(CCCN2c3ccccc3Sc3ccc(Cl)cc32)CC1.[SH][Ge]12[O]CCN(CC[O]1)CC[O]2 [Meterazinum OGC (R = SH)] | - . - |
| CN1CCN=C(c2ccccc2)c2cc(Cl)ccc21.[CH3][Ge]12[O]CCN(CC(=O)[O]1)CC(=O)[O]2 [Mezapamun OGC (R = CH3) R1R2 = R5R6 = O)] | - . - |
| CN1CCN=C(c2ccccc2)c2cc(Cl)ccc21.[CH3][Ge]([CH3])([CH3])[O][Ge]12[O]CCN(CC[O]1)CC[O]2 [Mezapamun OGC (R = OGeMe3)] | - . - |
| CN1CCN=C(c2ccccc2)c2cc(Cl)ccc21.[OH][Ge]12[O]CCN(CC[O]1)CC[O]2 [Mezapamun OGC (R = OH)] | - . - |
| CN1CCN=C(c2ccccc2)c2cc(Cl)ccc21.C[Si](C)(C)[O][Ge]12[O]CCN(CC[O]1)CC[O]2 [Mezapamun OGC (R = OSiMe3)] | - . - |
| CN1CCN=C(c2ccccc2)c2cc(Cl)ccc21.O=C1CN2CC[O][Ge]([C]34CC5CC(CC(C5)C3)C4)([O]CC2)[O]1 [Mezapamun OGC (R = adamantyl, R1R2 = O)] | - . - |
| NC12CC3CC(CC(C3)C1)C2.[OH][Ge]12[O]CCN(CC[O]1)CC[O]2 [Midantanum OGC (R = OH)] | - . - |
| NC12CC3CC(CC(C3)C1)C2.[SH][Ge]12[O]CCN(CC[O]1)CC[O]2 [Midantanum OGC (R = SH)] | - . - |
| O=C1CN=C(c2ccccc2Cl)c2cc(Br)ccc2N1.[OH][Ge]12[O]CCN(CC[O]1)CC[O]2 [Phenazepamum OGC (R = OH)] | - . - |
| CCC1(c2ccccc2)C(=O)NC(=O)NC1=O.[SH][Ge]12[O]CCN(CC[O]1)CC[O]2 [Phenobarbitalum OGC(R = SH)] | - . - |
